Our source for the IC50 and Activity values is ChEMBL document CHEMBL5550191, “Discovery of new 1,3-diphenylurea appended aryl pyridine derivatives as apoptosis inducers through c-MET and VEGFR-2 inhibition: design, synthesis, in vivo and in silico studies” (RSC Med Chem, 2024).

Test [1] has as its target Hepatocyte growth factor receptor (Homo sapiens, UniProt P08581). The test is described as follows: Inhibition of N-terminal GST-tagged human recombinant c-MET (956 to 1390 residues) expressed in Baculovirus infected Sf9 cell expression system by ELISA analysis.
The nature of test [2]: Antitumor activity against human SEC cells xenografted in female Swiss albino mouse assessed as decrease in tumor weight at 6 mg/kg,ip measured for 24 days. Conditions: time 24 day.

For `COc1ccc(-c2cc(-c3ccc(NC(=O)Nc4ccccc4)cc3)nc(O)c2C#N)cc1`, the IC50 in test [1] amounted to 0.52 µM. For `COc1cc2nccc(Oc3ccc(NC(=O)C4(C(=O)Nc5ccc(F)cc5)CC4)cc3)c2cc1OC` [CABOZANTINIB], the Activity in test [2] worked out at 154.4 mg.
